These results are taken from patent US20100298285A1, “Biclycloheteroaryl Compounds as P2x7 Modulators and Uses Thereof” (priority 2006, published 2010).

In one experiment the test system is IL-1β release, THP-1 cells. Kind of experiment: IL-1β release assay in differentiated THP-1 cells stimulated with BzATP (Example 9). It counts as cell-based. As to conditions: Homo sapiens; 0.1 μM compound ("*" symbols); differentiated THP-1 cells, 250 uM BzATP; read-out: IL-1β% Inhib. @ 0.3 or 0.1 μM. As to the method: THP-1 cells (ATCC Cat # 285-IF-100) are plated in 96 well plates at a concentration of 200,000 cells per well and allowed to differentiate in RPMI-1640 media (ATCC Cat # 30-2001) containing 10% FBS, 100 IU/mL penicillin, 100 ug/mL streptomycin, 100 ng/mL LPS and 100 ng/mL IFN-γ for 16 hours. Following differentiation, the cells are treated for an additional 2 hours in RPMI-1640 media containing 100 IU/mL penicillin, 100 ug/mL streptomycin and fresh LPS at 100 ng/mL. The cells are then pretreated for 30 minutes with the compound of interest at the appropriate concentration in RPMI media containing 100 IU/mL penicillin, 100 ug/mL streptomycin. Following the pretreatment 2′,3′-O-(4-benzoylbenzoyl)-adenosine 5′-triphosphate (Sigma Aldrich Cat # B6396) is added to a final concentration of 250 uM and the cells are incubated for an additional 45 minutes. 30 uL of cell supernatant is then collected and IL-1β levels determined via ELISA (R&D systems Cat. # HSLB50) according to manufacturer's recommendations using the Tecan Safire plate reader. Background adjusted IL-1β levels of drug treated and non-treated cells are used to calculate the percent inhibition.
The following compounds have been or can be prepared according to the synthetic methods described above. For the purpose of Table 1 below, activity of each compound, which can be determined using the IL-1β assay method described in Example 9, is expressed as follows: […]
The compounds set forth in Table 1 were tested for activity in a cellular model as described herein. Specifically, cells were pretreated with differing amounts of the compound under test and released IL-1β determined as in Example 9, above. Measurements were made and IC50 values, presented in Table 2, below, were determined by fitting the data to a four parameter logistic equation using GraphPad Prism software (GraphPad Software, Inc). The equation may be expressed by the following formula:
Y=Bottom+(Top−Bottom)/(1+10̂((Log EC50−X)*HillSlope))
Where X is the logarithm of concentration, Y is the response and Y starts at Bottom and goes to Top with a sigmoid shape.
On to `O=C(Cc1ccc(C(F)(F)F)cc1)Nc1c(Cl)ccc2c1CCN(S(=O)(=O)c1cccc(Cl)c1Cl)C2` [Compound 3014], for which the inhibition at 0.1 µM fell in the range of 0 to 25%. For `O=C(Cc1ccc(C(F)(F)F)cc1)Nc1c(Cl)ccc2c1CCN(S(=O)(=O)c1ccc(F)cc1F)C2` [Compound 3007], the inhibition at 0.1 µM was in the range of 0 to 25%. On the same count and under the same terms, the value for `O=C(Cc1ccc(C(F)(F)F)cc1)Nc1c(Cl)ccc2c1CCN(S(=O)(=O)c1ccc(F)c(F)c1)C2` [Compound 3005] was 0 to 25%.

With `O=C(Cc1ccc(C(F)(F)F)cc1)Nc1c(Cl)ccc2c1CCN(S(=O)(=O)c1cc(C(F)(F)F)ccc1Cl)C2` [Compound 3022], the inhibition at 0.1 µM lay within 0 to 25%. With `O=C(Cc1ccc(C(F)(F)F)cc1)Nc1c(Cl)ccc2c1CCN(S(=O)(=O)c1cc(F)cc(F)c1)C2` [Compound 3006], the inhibition at 0.1 µM was 0 to 25%.

The same experiment, now with this note: Homo sapiens; 0.3 μM compound ("+" symbols); differentiated THP-1 cells, 250 uM BzATP; read-out: IL-1β% Inhib. @ 0.3 or 0.1 μM.
In the case of `O=C(Cc1ccc(C(F)(F)F)c(F)c1)Nc1cccc2c1CCN(C(=O)C1COc3ccccc3C1)C2` (centres unmarked) [Compound 3040], the inhibition at 0.3 µM was at least 76%. The same measure, in the same setting: the value for `Cc1ccc(C(=O)N2CCc3c(ccc(Cl)c3NC(=O)Cc3ccc(C(F)(F)F)c(F)c3)C2)cc1` [Compound 3119] was 26 to 50%.

For the compound `Cc1cc(C(=O)N2CCc3c(ccc(Cl)c3NC(=O)Cc3cccc(C(F)(F)F)c3F)C2)nn1C` [Compound 3181], the inhibition at 0.3 µM fell in the range of 0 to 25%.

In the case of `O=C(Cc1cccc(C(F)(F)F)c1F)Nc1c(Cl)ccc2c1CCN(C(=O)c1ccc(Cl)cc1)C2` [Compound 3139], the inhibition at 0.3 µM was 0 to 25%. In the case of `CC(=O)N1CCc2c(ccc(Cl)c2NC(=O)Cc2ccc(C(F)(F)F)c(F)c2)C1` [Compound 3069], the inhibition at 0.3 µM was in the range of 0 to 25%.

Turning to `O=C(Cc1ccc(C(F)(F)F)c(F)c1)Nc1c(Cl)ccc2c1CCN(C(=O)c1ccccc1F)C2` [Compound 3114], the inhibition at 0.3 µM was in the range of 0 to 25%. Same read-out and setting: the value for `O=C(Cc1cccc(C(F)(F)F)c1F)Nc1c(Cl)ccc2c1CCN(C(=O)c1cc(F)ccc1F)C2` [Compound 3177] was 0 to 25%. Still for that read-out and setting: the result for `N#Cc1ccc(C(=O)N2CCc3c(ccc(Cl)c3NC(=O)Cc3ccc(C(F)(F)F)c(F)c3)C2)cc1` [Compound 3098] reads 0 to 25%; that for `C[C@H](NC(=O)OC(C)(C)C)C(=O)N1CCc2c(cccc2NC(=O)Cc2ccc(C(F)(F)F)c(F)c2)C1` [Compound 3048], 0 to 25%.

Take `O=C(Cc1cccc(C(F)(F)F)c1F)Nc1c(Cl)ccc2c1CCN(C(=O)COc1ccccc1)C2` [Compound 3152]: the inhibition at 0.3 µM fell in the range of 0 to 25%. Still for that read-out and setting: the result for `CC(=O)N1CCC(C(=O)N2CCc3c(ccc(Cl)c3NC(=O)Cc3ccc(C(F)(F)F)c(F)c3)C2)CC1` [Compound 3122] reads 0 to 25%. Same read-out and setting: the value for `O=C(Cc1cccc(C(F)(F)F)c1F)Nc1c(Cl)ccc2c1CCN(C(=O)c1cc(Cl)cc(Cl)c1)C2` [Compound 3195] was 0 to 25%; that for `O=C(Cc1ccc(C(F)(F)F)c(F)c1)Nc1c(Cl)ccc2c1CCN(C(=O)C1CC1)C2` [Compound 3102] was 0 to 25%. As for `O=C(Cc1ccc(C(F)(F)F)c(F)c1)Nc1cccc2c1CCN(C(=O)CC1CCCCCC1)C2` [Compound 3043], the inhibition at 0.3 µM was at least 76%.

The same experiment, now with this note: Homo sapiens; THP-1 cells, BzATP 250 uM, four parameter logistic fit.
`O=C(Cc1ccc(C(F)(F)F)c(F)c1)Nc1cccc2c1CCN(C(=O)C1COc3ccccc3C1)C2` (centres unmarked) [Compound 3040] came in with a concentration for half-maximal inhibition (IC50) of 64.2 nM. On the same count and under the same terms, the value for `CCCCS(=O)(=O)N1CCc2c(ccc(C)c2NC(=O)Cc2ccc(C(F)(F)F)c(F)c2)C1` [Compound 3448] was 65.4 nM.

`CC(C)(C)C(=O)N1CCc2c(ccc(C3CC3)c2NC(=O)Cc2ccc(C(F)(F)F)c(F)c2)C1` [Compound 3482]: the IC50 stood at 165 nM. As for `C[C@H](NC(=O)OC(C)(C)C)C(=O)N1CCc2c(cccc2NC(=O)Cc2ccc(C(F)(F)F)c(F)c2)C1` [Compound 3048], it took 473 nM to reach half-maximal inhibition (IC50).

Consider `COc1ccc2c(c1NC(=O)Cc1ccc(C(F)(F)F)c(F)c1)CCN(C(=O)C(C)(C)CO)C2` [Compound 3479, 2-(3-Fluoro-4-trifluoromethyl-phenyl)-N-[2-(3-hydroxy-2,2-dimethyl-propionyl)-6-methoxy-1,2,3,4-tetrahydro-isoquinolin-5-yl]-acetamide], for which the 50% inhibitory concentration (IC50) came to 171 nM.

In turn, `CC(C)S(=O)(=O)N1CCc2c(ccc(Cl)c2NC(=O)Cc2ccc(C(F)(F)F)c(F)c2)C1` [Compound 3304] came in with an IC50 of 71.1 nM. Still for that read-out and setting: the result for `O=C(Cc1ccc(C(F)(F)F)c(F)c1)Nc1cccc2c1CCN(C(=O)CC1CCCCCC1)C2` [Compound 3043] reads 82.5 nM.
